Assay type in all cases: cell-based
Experiment [1] has as its system mantle cell lymphoma cell (Mino or JeKo-1). As to the kind of experiment: Antiproliferative effect, MTS cell viability assay. Particulars: 72 h; for IC50: mantle cell lymphoma cell (Mino or JeKo-1), MTS assay, read-out: IC50 (anti-proliferation). An outline of the steps:
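MTS read-out (formazan absorbance at 490 nm) after 72 h exposure of Mino cells to 0–1 μM compound (0.0001, 0.001, 0.01, 0.1, 1 μM). Palbociclib and abemaciclib served as positive controls.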

The next experiment deals with T1, CDK6 (Homo sapiens, UniProt Q00534).
T1 construct: endogenous in cells
Description: CDK6 degradation (DC50, Dmax).

The next experiment addresses T2, CDK4 (Homo sapiens, UniProt P11802).
T2 construct: endogenous in cells
Description: CDK4 degradation (DC50, Dmax).

A value given as a limit tells only on which side of the number the result lay.

The record followed here is patent US20230295118A1 (EnhancedBio Inc., priority 2022, published 2023).

T2 sequence (P11802 whole entry): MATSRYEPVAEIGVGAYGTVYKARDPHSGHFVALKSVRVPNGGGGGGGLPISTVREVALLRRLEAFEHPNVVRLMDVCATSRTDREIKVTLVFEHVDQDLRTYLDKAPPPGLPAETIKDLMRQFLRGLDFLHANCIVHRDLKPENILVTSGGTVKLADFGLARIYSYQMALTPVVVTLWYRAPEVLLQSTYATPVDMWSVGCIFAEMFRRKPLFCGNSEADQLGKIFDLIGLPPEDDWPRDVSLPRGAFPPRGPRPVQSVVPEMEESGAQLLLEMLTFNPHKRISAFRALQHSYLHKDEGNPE
T1 sequence (Q00534 whole entry): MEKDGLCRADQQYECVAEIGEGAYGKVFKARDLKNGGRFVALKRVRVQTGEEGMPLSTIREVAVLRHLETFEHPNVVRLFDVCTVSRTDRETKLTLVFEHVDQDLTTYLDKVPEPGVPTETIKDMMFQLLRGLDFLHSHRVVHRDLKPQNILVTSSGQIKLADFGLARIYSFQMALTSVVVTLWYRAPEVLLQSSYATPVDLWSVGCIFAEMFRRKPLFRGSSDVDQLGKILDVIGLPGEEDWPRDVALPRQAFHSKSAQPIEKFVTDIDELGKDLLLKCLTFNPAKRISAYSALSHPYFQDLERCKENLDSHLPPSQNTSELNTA

With `CC(=O)c1c(C)c2cnc(Nc3ccc(N4CCN(CC5CCN(c6ccc7c(c6)CN(C6CCC(=O)NC6=O)C7=O)CC5)CC4)cn3)nc2n(C2CCCC2)c1=O` (centres unmarked) [Compound 66, 3-(5-(4-((4-(6-((6-acetyl-8-cyclopentyl-5-methyl-7-oxo-7,8-dihydropyrido[2,3-d]pyrimidin-2-yl)amino)pyridin-3-yl)piperazin-1-yl)methyl)piperidin-1-yl)-1-oxoisoindolin-2-yl)piperidine-2,6-dione], the IC50 in experiment [1] was less than 50 nM. On CDK6, this compound returned a DC50 of less than 50 nM and a Dmax of more than 80%. Further, on CDK4, the DC50 was 50 to 200 nM and the Dmax is more than 80%.

With `CC(=O)c1c(C)c2cnc(Nc3ccc(N4CCN(CCN5CCN(c6ccc7c(c6)C(=O)N(C6CCC(=O)NC6=O)C7=O)CC5)CC4)cn3)nc2n(C2CCCC2)c1=O` (centres unmarked) [Compound 67, 5-(4-(2-(4-(6-((6-acetyl-8-cyclopentyl-5-methyl-7-oxo-7,8-dihydropyrido[2,3-d]pyrimidin-2-yl)amino)pyridin-3-yl)piperazin-1-yl)ethyl)piperazin-1-yl)-2-(2,6-dioxopiperidin-3-yl) isoindoline-1,3-dione], in experiment [1], the IC50 is less than 50 nM. Moreover, on CDK6, the half-maximal degradation concentration (DC50) fell in the range of 50 to 200 nM and the Dmax was more than 80%. On CDK4, this compound displayed a DC50 of less than 50 nM and a maximal degradation (Dmax) of more than 80%.

In the case of `CC(=O)c1c(C)c2cnc(Nc3ccc(N4CCN(CCN5CCN(c6ccc7c(c6)CN(C6CCC(=O)NC6=O)C7=O)CC5)CC4)cn3)nc2n(C2CCCC2)c1=O` (centres unmarked) [Compound 68, 3-(5-(4-(2-(4-(6-((6-acetyl-8-cyclopentyl-5-methyl-7-oxo-7,8-dihydropyrido[2,3-d]pyrimidin-2-yl)amino)pyridin-3-yl)piperazin-1-yl)ethyl)piperazin-1-yl)-1-oxoisoindolin-2-yl)piperidine-2,6-dione], the IC50 in experiment [1] was 50 to 200 nM. On CDK6, this compound had a DC50 of 50 to 200 nM and a Dmax of more than 80%. At CDK4, this compound registered a DC50 of 50 to 200 nM and a Dmax of more than 60%.

Take `CC(=O)c1c(C)c2cnc(Nc3ccc(N4CCN(CCC5CCN(c6ccc7c(c6)C(=O)N(C6CCC(=O)NC6=O)C7=O)CC5)CC4)cn3)nc2n(C2CCCC2)c1=O` (centres unmarked) [Compound 69, 5-(4-(2-(4-(6-((6-acetyl-8-cyclopentyl-5-methyl-7-oxo-7,8-dihydropyrido[2,3-d]pyrimidin-2-yl)amino)pyridin-3-yl)piperazin-1-yl)ethyl)piperidin-1-yl)-2-(2,6-dioxopiperidin-3-yl)isoindoline-1,3-dione]: in experiment [1], the IC50 lay within 50 to 200 nM. At CDK6, this compound returned a half-maximal degradation concentration (DC50) of 50 to 200 nM and a Dmax of more than 60%. In addition, at CDK4, the DC50 lay in the range of 50 to 200 nM and the Dmax is more than 60%.

As to `CC(=O)c1c(C)c2cnc(Nc3ccc(N4CCN(CCC5CCN(c6ccc7c(c6)CN(C6CCC(=O)NC6=O)C7=O)CC5)CC4)cn3)nc2n(C2CCCC2)c1=O` (centres unmarked) [Compound 70, 3-(5-(4-(2-(4-(6-((6-acetyl-8-cyclopentyl-5-methyl-7-oxo-7,8-dihydropyrido[2,3-d]pyrimidin-2-yl)amino)pyridin-3-yl)piperazin-1-yl)ethyl)piperidin-1-yl)-1-oxoisoindolin-2-yl) piperidine-2,6-dione], the IC50 in experiment [1] is 50 to 200 nM. On CDK6, this compound registered a DC50 of 50 to 200 nM and a Dmax of more than 60%. For the same compound, at CDK4, the DC50 is 50 to 200 nM and the Dmax is more than 50%.

With `CC(=O)c1c(C)c2cnc(Nc3ccc(N4CCN(CCN5CCC(c6ccc7c(c6)C(=O)N(C6CCC(=O)NC6=O)C7=O)CC5)CC4)cn3)nc2n(C2CCCC2)c1=O` (centres unmarked) [Compound 71, 5-(1-(2-(4-(6-((6-acetyl-8-cyclopentyl-5-methyl-7-oxo-7,8-dihydropyrido[2,3-d]pyrimidin-2-yl)amino)pyridin-3-yl)piperazin-1-yl)ethyl)piperidin-4-yl)-2-(2,6-dioxopiperidin-3-yl)isoindoline-1,3-dione], the IC50 in experiment [1] lay within 50 to 200 nM. At CDK6, this compound registered a DC50 of more than 200 nM and a Dmax of more than 60%. On CDK4, this compound came in with a DC50 of more than 200 nM and a Dmax of more than 60%.

Take `CC(=O)c1c(C)c2cnc(Nc3ccc(N4CCN(CCN5CCC(c6ccc7c(c6)CN(C6CCC(=O)NC6=O)C7=O)CC5)CC4)cn3)nc2n(C2CCCC2)c1=O` (centres unmarked) [Compound 72, 3-(5-(1-(2-(4-(6-((6-acetyl-8-cyclopentyl-5-methyl-7-oxo-7,8-dihydropyrido[2,3-d]pyrimidin-2-yl)amino)pyridin-3-yl)piperazin-1-yl)ethyl)piperidin-4-yl)-1-oxoisoindolin-2-yl)piperidine-2,6-dione]: in experiment [1], the IC50 lay in the range of 50 to 200 nM. The DC50 on CDK6 was more than 200 nM; at CDK4, 50 to 200 nM. The values for the Dmax at CDK6 and at CDK4 were more than 50% and more than 60%, respectively.

Regarding `Cc1nc2c(F)cc(-c3nc(Nc4ccc(CN5CCN(CCCNc6ccc7c(c6)CN(C6CCC(=O)NC6=O)C7=O)CC5)cn4)ncc3F)cc2n1C(C)C` (centres unmarked) [Compound 74, 3-(5-((3-(4-((6-((5-fluoro-4-(4-fluoro-1-isopropyl-2-methyl-1H-benzo[d]imidazol-6-yl)pyrimidin-2-yl)amino)pyridin-3-yl)methyl)piperazin-1-yl)propyl)amino)-1-oxoisoindolin-2-yl)piperidine-2,6-dione], in experiment [1], the IC50 is less than 50 nM. Also, on CDK6, the half-maximal degradation concentration (DC50) was less than 50 nM and the Dmax was more than 80%. On CDK4, this compound showed a DC50 of less than 50 nM and a Dmax of more than 80%.

Take `CN(C)C(=O)c1cc2cnc(Nc3ccc(N4CCN(CCCNc5ccc6c(c5)C(=O)N(C5CCC(=O)NC5=O)C6=O)CC4)cn3)nc2n1C1CCCC1` (centres unmarked) [Compound 75, 7-cyclopentyl-2-((5-(4-(3-((2-(2,6-dioxopiperidin-3-yl)-1,3-dioxoisoindolin-5-yl)amino)propyl)piperazin-1-yl)pyridin-2-yl)amino)-N,N-dimethyl-7H-pyrrolo[2,3-d]pyrimidine-6-carboxamide]: the IC50 in experiment [1] is less than 50 nM. On CDK6, this compound registered a DC50 of less than 50 nM and a Dmax of more than 80%. Further, at CDK4, the DC50 is less than 50 nM and the maximal degradation (Dmax) is more than 80%.

For the compound `CN(C)C(=O)c1cc2cnc(Nc3ccc(N4CCN(CCCNc5ccc6c(c5)CN(C5CCC(=O)NC5=O)C6=O)CC4)cn3)nc2n1C1CCCC1` (centres unmarked) [Compound 76, 7-cyclopentyl-2-((5-(4-(3-((2-(2,6-dioxopiperidin-3-yl)-1-oxoisoindolin-5-yl)amino)propyl)piperazin-1-yl)pyridin-2-yl)amino)-N,N-dimethyl-7H-pyrrolo[2,3-d]pyrimidine-6-carboxamide], the IC50 in experiment [1] is less than 50 nM. In experiment [1] (Mino cells, 0-1 μM, result in words), the “inhibition of cell proliferation of Mino cells” value was “dose-dependent inhibition of cell proliferation”. Moreover, at CDK6, the DC50 was less than 50 nM and the Dmax was more than 80%. At CDK4, this compound came in with a DC50 of less than 50 nM and a Dmax of more than 80%.

Take `CC(=O)c1c(C)c2cnc(Nc3ccc(N4CCN(C5CCN(c6cccc7c6C(=O)N(C6CCC(=O)NC6=O)C7=O)CC5)CC4)cn3)nc2n(C2CCCC2)c1=O` (centres unmarked) [Compound 77, 4-(4-(4-(6-((6-acetyl-8-cyclopentyl-5-methyl-7-oxo-7,8-dihydropyrido[2,3-d]pyrimidin-2-yl)amino)pyridin-3-yl)piperazin-1-y1)piperidin-1-yl)-2-(2,6-dioxopiperidin-3-yl) isoindoline-1,3-dione]: the IC50 in experiment [1] lay within 50 to 200 nM. For the same compound, at CDK6, the DC50 is 50 to 200 nM and the Dmax was more than 60%. At CDK4, this compound displayed a DC50 of 50 to 200 nM and a Dmax of more than 60%.

On to `CC(=O)c1c(C)c2cnc(Nc3ccc(N4CCN(CC5CCN(c6cccc7c6C(=O)N(C6CCC(=O)NC6=O)C7=O)CC5)CC4)cn3)nc2n(C2CCCC2)c1=O` (centres unmarked) [Compound 78, 4-(4-((4-(6-((6-acetyl-8-cyclopentyl-5-methyl-7-oxo-7,8-dihydropyrido[2,3-d]pyrimidin-2-yl)amino)pyridin-3-yl)piperazin-1-yl)methyl)piperidin-1-yl)-2-(2,6-dioxopiperidin-3-yl) isoindoline-1,3-dione], for which the IC50 in experiment [1] fell in the range of 50 to 200 nM. On CDK6, the DC50 lay within 50 to 200 nM and the Dmax was more than 60%. Besides, at CDK4, the DC50 was 50 to 200 nM and the Dmax is more than 60%.

As to `CC(=O)c1c(C)c2cnc(Nc3ccc(N4CCN(C5CN(c6cccc7c6C(=O)N(C6CCC(=O)NC6=O)C7=O)C5)CC4)cn3)nc2n(C2CCCC2)c1=O` (centres unmarked) [Compound 79, 4-(3-(4-(6-((6-acetyl-8-cyclopentyl-5-methyl-7-oxo-7,8-dihydropyrido[2,3-d]pyrimidin-2-yl)amino)pyridin-3-yl)piperazin-1-yl)azetidin-1-yl)-2-(2,6-dioxopiperidin-3-yl)isoindoline-1,3-dione], the IC50 in experiment [1] fell in the range of 50 to 200 nM. For the same compound, the DC50 on CDK6 and at CDK4 was 50 to 200 nM each time. Further, the Dmax at CDK6 and on CDK4 was more than 60% throughout.

In the case of `CC(=O)c1c(C)c2cnc(Nc3ccc(N4CCN(CC5CN(c6ccc7c(c6)C(=O)N(C6CCC(=O)NC6=O)C7=O)C5)CC4)cn3)nc2n(C2CCCC2)c1=O` (centres unmarked) [Compound 80, 5-(3-((4-(6-((6-acetyl-8-cyclopentyl-5-methyl-7-oxo-7,8-dihydropyrido[2,3-d]pyrimidin-2-yl)amino)pyridin-3-yl)piperazin-1-yl)methyl)azetidin-1-yl)-2-(2,6-dioxopiperidin-3-yl) isoindoline-1,3-dione], the IC50 in experiment [1] was less than 50 nM. On CDK6, this compound displayed a DC50 of less than 50 nM and a Dmax of more than 80%. Moreover, at CDK4, the DC50 was less than 50 nM and the Dmax was more than 80%.
